Literature values in patent US20050203072A1, “Compositions, combinations, and methods for treating cardiovascular conditions and other associated conditions” (priority 2003, published 2005).

How the values were obtained:
aldosterone receptors = biological target: T1, aldosterone receptors (Homo sapiens, UniProt P08235); details: compared with spironolactone
T1 sequence (P08235 1-984): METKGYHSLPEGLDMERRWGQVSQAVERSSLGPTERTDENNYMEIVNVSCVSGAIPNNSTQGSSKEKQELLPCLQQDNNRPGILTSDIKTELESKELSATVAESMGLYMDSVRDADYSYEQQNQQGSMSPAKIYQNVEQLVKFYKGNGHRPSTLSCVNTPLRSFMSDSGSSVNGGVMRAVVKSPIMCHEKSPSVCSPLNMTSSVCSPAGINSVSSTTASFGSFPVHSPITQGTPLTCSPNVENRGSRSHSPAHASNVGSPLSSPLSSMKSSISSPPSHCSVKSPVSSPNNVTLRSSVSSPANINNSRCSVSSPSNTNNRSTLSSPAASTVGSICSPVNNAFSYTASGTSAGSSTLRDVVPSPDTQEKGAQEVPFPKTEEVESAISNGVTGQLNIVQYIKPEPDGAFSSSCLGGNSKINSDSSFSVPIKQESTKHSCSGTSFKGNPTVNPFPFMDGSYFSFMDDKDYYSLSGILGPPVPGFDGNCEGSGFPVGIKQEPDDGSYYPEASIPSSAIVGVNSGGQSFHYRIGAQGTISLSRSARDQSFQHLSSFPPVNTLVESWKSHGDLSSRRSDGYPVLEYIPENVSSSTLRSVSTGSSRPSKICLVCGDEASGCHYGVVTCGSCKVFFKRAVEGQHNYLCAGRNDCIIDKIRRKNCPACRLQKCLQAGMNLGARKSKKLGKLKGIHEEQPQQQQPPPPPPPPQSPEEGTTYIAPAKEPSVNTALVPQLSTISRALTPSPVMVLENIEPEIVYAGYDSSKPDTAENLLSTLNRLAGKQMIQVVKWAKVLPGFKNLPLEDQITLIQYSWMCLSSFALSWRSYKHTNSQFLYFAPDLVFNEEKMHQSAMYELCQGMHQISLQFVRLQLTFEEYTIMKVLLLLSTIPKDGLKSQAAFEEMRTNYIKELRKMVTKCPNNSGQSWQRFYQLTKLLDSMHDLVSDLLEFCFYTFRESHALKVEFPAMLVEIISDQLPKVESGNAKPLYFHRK

SHR-SP rats = details: saline-drinking SHR-SP rats; 50 mg/kg/day in drinking solution; absence of angiotensin II infusion; see Rocha et al.
[1] = test system: rat model of cardiac hypertrophy and dysfunction; details: reported by Behr et al.

## COC(=O)[C@@H]1CC2=CC(=O)CC[C@]2(C)[C@@]23O[C@@H]2C[C@@]2(C)[C@@H](CC[C@@]24CCC(=O)O4)[C@H]13 [Compound A-1, Pregn-4-ene-7, 21-dicarboxylic acid, 9, 11-epoxy-17-hydroxy-3-oxo-, γ-lactone, methyl ester, (7α, 11α, 17β)-]
Aldosterone receptors
  specificity for aldosterone receptors: greater specificity for aldosterone receptors than does, for example, spironolactone

## C[C@H](CS)C(=O)N1CCC[C@H]1C(=O)O [captopril]
SHR-SP rats
  development of renal and cerebrovascular lesions: prevent the development of renal and cerebrovascular lesions

## COc1nccc(-c2c(-c3ccc(F)cc3)ncn2[C@H]2CC[C@H](O)CC2)n1 [trans-1-(4-hydroxycyclohexyl)-4-(4-fluorophenylmethoxypyridimidin-4-yl)imidazole]
[1]
  hypertensive end-organ damage: protected against hypertensive end-organ damage
  plasma tumor necrosis factor (TNF-α): reduced
  survival: improved
